System: DNA repair protein genes
Test: DNA chip mRNA expression in yeast, DNA repair protein genes (Table 3)
Type: cell-based, Saccharomyces cerevisiae S288C
Conditions: incubated two hours, concentrations as in the 1st table
Protocol: Yeast (Saccharomyces cerevisiae S288C (α SUC2mal mel gap2 CUP1)) were incubated at 25° C. on YPD medium (yeast extract 1%, polypepton 2%, glucose 2%). One of toxic chemical substances was added to the cells at logarithmic growth phase, and the cells were further incubated for two hours. Cells were cultured without any chemical substance in the same condition, and were used as control. Concentrations of the chemical substances were defined to inhibit the growth of the yeast but not lead to death.
After completion of the incubation, the culture was centrifuged to collect the cells. To the cells, sodium acetate buffer (50 mM sodium acetate, 10 mM EDTA, 1% SDS) was added, and the mixture was shaken at 65° C. for five minutes, followed by returning to room temperature, and obtaining the supernatant, of which the procedures were repeated two times. To the supernatant, ½ amount of a solution of phenol/chloroform was added, and the mixture was centrifuged to give a supernatant, which was added with an equal amount of chloroform, and the mixture was centrifuged to give a supernatant. To the supernatant, an equal amount of isopropanol containing 0.3 M sodium acetate was added, and the mixture was allowed to stand at room temperature for 30 minutes, after which the mixture was centrifuged to give a sediment of the whole RNAs. Seventy % ethanol was added to the sediment, and the mixture was again centrifuged to give a sediment, which was then dried and dissolved in water. mRNA was isolated from the whole RNAs as followings. In view of the fact that a poly A chain is attached to the 3′ terminus of mRNA, a polynucleotide having a poly T structure which was immobilized on the surface of latex beads was used to trap the mRNA, and then the mRNA was washed and eluted with spine column (Oligotex-dT30<Super>mRNA Purification Kit, Takara). Reverse transcription of the mRNA was conducted with a reverse transcriptase (Super Script II Reverse Transcriptase; catalogue No. 18064-014, GibcoBRL) using fluorescence-labeled nucleotides to give cDNAs that were introduced with Cy3-dUTP or Cy5-dUTP during the reverse transcription.
The labeled cDNAs were dissolved in TE buffer (10mM Tris-HCl/1 mM EDTA, pH8.0), and the solution was dropped on the DNA chip containing the whole genes of yeast (DNA Chip Research Inc. Japan) so that the cDNAs were hybridized on the DNA chip at 65° C. for over 12 hours. The fluoresces intensity of the DNA chip was read with a scanner, and the ratio relative to the fluorescence intensity resulting from the absence of chemical substance was estimated as the following, which is shown in Tables 1 to 9: […]

Q: With `C=CC=O` [(14), acrolein] as the compound, how does the “The level of expressed mRNA in the presence of chemical substance/The level of expressed mRNA in the absence of chemical substance” value (yeast gene YAL015C) read?
A: The value was 1.6.

Q: And the “The level of expressed mRNA in the presence of chemical substance/The level of expressed mRNA in the absence of chemical substance” value (yeast gene YAR007C)?
A: The value was 1.4.

Q: And the “The level of expressed mRNA in the presence of chemical substance/The level of expressed mRNA in the absence of chemical substance” value (yeast gene YBL019W)?
A: Its value is 1.1.

Q: And the “The level of expressed mRNA in the presence of chemical substance/The level of expressed mRNA in the absence of chemical substance” value (yeast gene YBR073W)?
A: The value was 1.0.

Q: What about the “The level of expressed mRNA in the presence of chemical substance/The level of expressed mRNA in the absence of chemical substance” value (yeast gene YBR272C) of the same compound?
A: Its value is 1.0.

Q: What about the “The level of expressed mRNA in the presence of chemical substance/The level of expressed mRNA in the absence of chemical substance” value (yeast gene YCR014C) of the same compound?
A: Its value is 1.0.

Q: What about the “The level of expressed mRNA in the presence of chemical substance/The level of expressed mRNA in the absence of chemical substance” value (yeast gene YDL017W) of the same compound?
A: The value was 1.3.

Q: And the “The level of expressed mRNA in the presence of chemical substance/The level of expressed mRNA in the absence of chemical substance” value (yeast gene YDL059C)?
A: Its value is 4.7.

Q: And the “The level of expressed mRNA in the presence of chemical substance/The level of expressed mRNA in the absence of chemical substance” value (yeast gene YDL200C)?
A: Its value is 1.8.

Q: And the “The level of expressed mRNA in the presence of chemical substance/The level of expressed mRNA in the absence of chemical substance” value (yeast gene YDR054C)?
A: Its value is 1.1.

Q: And the “The level of expressed mRNA in the presence of chemical substance/The level of expressed mRNA in the absence of chemical substance” value (yeast gene YDR369C)?
A: The value was 0.7.

Q: What about the “The level of expressed mRNA in the presence of chemical substance/The level of expressed mRNA in the absence of chemical substance” value (yeast gene YEL019C) of the same compound?
A: The value was 1.7.

Q: And the “The level of expressed mRNA in the presence of chemical substance/The level of expressed mRNA in the absence of chemical substance” value (yeast gene YEL037C)?
A: Its value is 1.0.

Q: What about the “The level of expressed mRNA in the presence of chemical substance/The level of expressed mRNA in the absence of chemical substance” value (yeast gene YER162C) of the same compound?
A: The value was 0.8.

Q: And the “The level of expressed mRNA in the presence of chemical substance/The level of expressed mRNA in the absence of chemical substance” value (yeast gene YFL014W)?
A: The value was 7.3.

Q: What about the “The level of expressed mRNA in the presence of chemical substance/The level of expressed mRNA in the absence of chemical substance” value (yeast gene YGL058W) of the same compound?
A: Its value is 1.3.

Q: What about the “The level of expressed mRNA in the presence of chemical substance/The level of expressed mRNA in the absence of chemical substance” value (yeast gene YGL091C) of the same compound?
A: Its value is 3.1.

Q: What about the “The level of expressed mRNA in the presence of chemical substance/The level of expressed mRNA in the absence of chemical substance” value (yeast gene YGL127C) of the same compound?
A: The value was 1.0.

Q: What about the “The level of expressed mRNA in the presence of chemical substance/The level of expressed mRNA in the absence of chemical substance” value (yeast gene YGL163C) of the same compound?
A: Its value is 1.6.

Q: And the “The level of expressed mRNA in the presence of chemical substance/The level of expressed mRNA in the absence of chemical substance” value (yeast gene YGL249W)?
A: The value was 1.9.

Q: And the “The level of expressed mRNA in the presence of chemical substance/The level of expressed mRNA in the absence of chemical substance” value (yeast gene YGR180C)?
A: Its value is 0.9.

Q: And the “The level of expressed mRNA in the presence of chemical substance/The level of expressed mRNA in the absence of chemical substance” value (yeast gene YGR231C)?
A: Its value is 2.2.

Q: What about the “The level of expressed mRNA in the presence of chemical substance/The level of expressed mRNA in the absence of chemical substance” value (yeast gene YGR258C) of the same compound?
A: Its value is 1.2.

Q: What about the “The level of expressed mRNA in the presence of chemical substance/The level of expressed mRNA in the absence of chemical substance” value (yeast gene YHR164C) of the same compound?
A: The value was 1.3.

Q: What about the “The level of expressed mRNA in the presence of chemical substance/The level of expressed mRNA in the absence of chemical substance” value (yeast gene YIL036W) of the same compound?
A: Its value is 1.1.

Q: And the “The level of expressed mRNA in the presence of chemical substance/The level of expressed mRNA in the absence of chemical substance” value (yeast gene YIL072W)?
A: Its value is 2.0.

Q: And the “The level of expressed mRNA in the presence of chemical substance/The level of expressed mRNA in the absence of chemical substance” value (yeast gene YIL143C)?
A: Its value is 1.0.

Q: What about the “The level of expressed mRNA in the presence of chemical substance/The level of expressed mRNA in the absence of chemical substance” value (yeast gene YIL153W) of the same compound?
A: The value was 1.0.

Q: And the “The level of expressed mRNA in the presence of chemical substance/The level of expressed mRNA in the absence of chemical substance” value (yeast gene YIR002C)?
A: The value was 1.1.

Q: What about the “The level of expressed mRNA in the presence of chemical substance/The level of expressed mRNA in the absence of chemical substance” value (yeast gene YJL026W) of the same compound?
A: Its value is 1.0.

Q: What about the “The level of expressed mRNA in the presence of chemical substance/The level of expressed mRNA in the absence of chemical substance” value (yeast gene YJR046W) of the same compound?
A: Its value is 1.0.

Q: What about the “The level of expressed mRNA in the presence of chemical substance/The level of expressed mRNA in the absence of chemical substance” value (yeast gene YJR052W) of the same compound?
A: Its value is 1.4.

Q: And the “The level of expressed mRNA in the presence of chemical substance/The level of expressed mRNA in the absence of chemical substance” value (yeast gene YKL145W)?
A: Its value is 1.0.

Q: What about the “The level of expressed mRNA in the presence of chemical substance/The level of expressed mRNA in the absence of chemical substance” value (yeast gene YLR103C) of the same compound?
A: The value was 1.0.

Q: What about the “The level of expressed mRNA in the presence of chemical substance/The level of expressed mRNA in the absence of chemical substance” value (yeast gene YLR233C) of the same compound?
A: The value was 1.1.

Q: And the “The level of expressed mRNA in the presence of chemical substance/The level of expressed mRNA in the absence of chemical substance” value (yeast gene YLR288C)?
A: The value was 1.2.

Q: What about the “The level of expressed mRNA in the presence of chemical substance/The level of expressed mRNA in the absence of chemical substance” value (yeast gene YML032C) of the same compound?
A: The value was 1.0.

Q: And the “The level of expressed mRNA in the presence of chemical substance/The level of expressed mRNA in the absence of chemical substance” value (yeast gene YML058W)?
A: Its value is 1.1.

Q: What about the “The level of expressed mRNA in the presence of chemical substance/The level of expressed mRNA in the absence of chemical substance” value (yeast gene YMR035W) of the same compound?
A: The value was 1.3.

Q: What about the “The level of expressed mRNA in the presence of chemical substance/The level of expressed mRNA in the absence of chemical substance” value (yeast gene YMR072W) of the same compound?
A: Its value is 1.2.

Q: And the “The level of expressed mRNA in the presence of chemical substance/The level of expressed mRNA in the absence of chemical substance” value (yeast gene YMR096W)?
A: Its value is 4.7.

Q: And the “The level of expressed mRNA in the presence of chemical substance/The level of expressed mRNA in the absence of chemical substance” value (yeast gene YMR284W)?
A: The value was 1.2.

Q: And the “The level of expressed mRNA in the presence of chemical substance/The level of expressed mRNA in the absence of chemical substance” value (yeast gene YNL213C)?
A: The value was 1.8.

Q: And the “The level of expressed mRNA in the presence of chemical substance/The level of expressed mRNA in the absence of chemical substance” value (yeast gene YNL250W)?
A: The value was 1.6.

Q: And the “The level of expressed mRNA in the presence of chemical substance/The level of expressed mRNA in the absence of chemical substance” value (yeast gene YNL261W)?
A: The value was 1.4.

Q: What about the “The level of expressed mRNA in the presence of chemical substance/The level of expressed mRNA in the absence of chemical substance” value (yeast gene YNL312W) of the same compound?
A: The value was 1.1.

Q: And the “The level of expressed mRNA in the presence of chemical substance/The level of expressed mRNA in the absence of chemical substance” value (yeast gene YOL043C)?
A: Its value is 1.5.

Q: What about the “The level of expressed mRNA in the presence of chemical substance/The level of expressed mRNA in the absence of chemical substance” value (yeast gene YOR005C) of the same compound?
A: Its value is 1.2.

Q: What about the “The level of expressed mRNA in the presence of chemical substance/The level of expressed mRNA in the absence of chemical substance” value (yeast gene YOR386W) of the same compound?
A: The value was 0.9.

Q: And the “The level of expressed mRNA in the presence of chemical substance/The level of expressed mRNA in the absence of chemical substance” value (yeast gene YPL022W)?
A: The value was 0.9.

Q: And the “The level of expressed mRNA in the presence of chemical substance/The level of expressed mRNA in the absence of chemical substance” value (yeast gene YPL164C)?
A: Its value is 0.9.

Q: What about the “The level of expressed mRNA in the presence of chemical substance/The level of expressed mRNA in the absence of chemical substance” value (yeast gene YPL194W) of the same compound?
A: Its value is 1.1.

Q: What about the “The level of expressed mRNA in the presence of chemical substance/The level of expressed mRNA in the absence of chemical substance” value (yeast gene YPR025C) of the same compound?
A: The value was 1.3.

From patent US8192962B2, “Processes for detecting toxic substances” (Daikin Industries, Ltd., priority 2001, dated 2012)
